The values that follow come from patent publication US20120165304A1, “6,7,8,9-Tetrahydro-5H-1,4,7,10a-tetraaza-cyclohept[f]indene derivatives, pharmaceutical compositions containing these compounds, their use and processes for preparing them” (BOEHRINGER INGELHEIM INTERNATIONAL GMBH, priority 2008, published 2012).

For this experiment, the target named is human 5-HT2C receptor (Homo sapiens, UniProt P28335, I156V/I160V/N158S). The experiment can be described thus: cell-based.
Chain of human 5-HT2C receptor (P28335 33-458 I156V/N158S/I160V limits assumed): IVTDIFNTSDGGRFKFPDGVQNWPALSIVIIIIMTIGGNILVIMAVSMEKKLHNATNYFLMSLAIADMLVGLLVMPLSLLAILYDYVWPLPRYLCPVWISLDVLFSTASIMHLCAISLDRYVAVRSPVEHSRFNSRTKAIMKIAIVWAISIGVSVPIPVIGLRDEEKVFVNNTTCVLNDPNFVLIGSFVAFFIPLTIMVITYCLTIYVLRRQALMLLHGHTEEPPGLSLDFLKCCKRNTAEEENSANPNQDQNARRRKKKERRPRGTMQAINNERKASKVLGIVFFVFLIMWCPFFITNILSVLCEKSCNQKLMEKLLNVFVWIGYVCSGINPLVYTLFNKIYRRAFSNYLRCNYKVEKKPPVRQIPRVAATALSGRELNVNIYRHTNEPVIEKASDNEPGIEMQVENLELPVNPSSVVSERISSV
One may read the EC50 as the concentration needed to bring the measured effect to its halfway point. Low readings indicate higher potency in that assay, high ones lower potency in that assay. Compound `c1cnn(CC2CN(c3c4c(nc5ccnn35)CCNCC4)C2)c1` [Example 17, 10-(3-Pyrazol-1-ylmethyl-azetidin-1-yl)-6,7,8,9-tetrahydro-5H-1,4,7,10a-tetraaza-cyclohepta[f]indene] yielded a 50% effective concentration (EC50) of 15 nM.

Take `CC1CN(C(=O)C2CN(c3c4c(nc5ccnn35)CCNCC4)C2)CCO1` (centres unmarked) [Example 31.34]: the midpoint of the response, the EC50, lay at 91 nM.

As for `O=C(C1CN(c2c3c(nc4c(Br)cnn24)CCNCC3)C1)N1CCC2(CCOC2)CC1` [Example 31.137], a half-maximal response (EC50) required 71 nM.

In turn, `CCCn1c(C2CN(c3c4c(nc5ccnn35)CCNCC4)C2)nc2ccccc21` [Example 34.35] gave a concentration giving a half-maximal response (EC50) of 472 nM.

With `C#CC(C)(C)NC(=O)C1CN(c2c3c(nc4ccnn24)CCNCC3)C1` [Example 37.91], the EC50 came to 301 nM. This EC50 lies about 1.6-fold lower than the previous one.

For `FC(F)(F)c1cccc(OC2CN(c3c4c(nc5ccnn35)CCNCC4)C2)c1` [Example 1.7], the EC50 came out at 42 nM. This EC50 lies about 7.2-fold lower than the previous one.

In turn, `CN1CCc2nc3ccnn3c(N3CC(C(=O)N4CCC(F)CC4)C3)c2CC1` [Example 36.29] had a concentration for a half-maximal effect (EC50) of 279 nM.

For the compound `CN(Cc1ccc(C(F)(F)F)cc1)C(=O)C1CN(c2c3c(nc4ccnn24)CCNCC3)C1` [Example 31.87], the EC50 turned out to be 36 nM.

For `O=C(C1CN(c2c3c(nc4ccnn24)CCNCC3)C1)N1CCC(CCc2ccccc2)C1` (centres unmarked) [Example 31.99], the EC50 was found to be 64 nM.

In the case of `O=C(C1CN(c2c3c(nc4ccnn24)CCNCC3)C1)N1CCN(c2ccc(F)cc2)CC1` [Example 37.8], a half-maximal effect (EC50) was put at 8 nM. Compared with the last compound, the EC50 is about 8-fold lower.

Consider `O=C(C1CN(c2c3c(nc4ccnn24)CCNCC3)C1)N1CCCC(C2CCCCC2)C1` (centres unmarked) [Example 31.70], for which the concentration giving a half-maximal response (EC50) came out at 175 nM. Compared with the last compound, the EC50 is about 22-fold higher.

On to `O=C(C1CN(c2c3c(nc4ccnn24)CCNCC3)C1)N1CCN(C2CCCCC2)CC1` [Example 37.38], for which the EC50 worked out at 3 nM.

In turn, `CN1CCc2nc3ccnn3c(N3CC(C(=O)N4CCN(C)C(=O)C4)C3)c2CC1` [Example 36.19] displayed an EC50 of 257 nM.

`c1ccc2c(c1)OCCN2c1c2c(nc3ccnn13)CCNCC2` [Example 1.39] gave an EC50 of 2580 nM.

Compound `CCc1cnn2c(N3CCCCC3)c3c(nc12)CCNCC3` [Example 25, 3-Ethyl-10-piperidin-1-yl-6,7,8,9-tetrahydro-5H-1,4,7,10a-tetraaza-cyclohepta[f]indene] registered a concentration for a half-maximal effect (EC50) of 106 nM. This EC50 is about 24-fold lower than that of the compound before.

With `O=C(C1CN(c2c3c(nc4ccnn24)CCNCC3)C1)N1CCCC2(CCc3ccccc32)C1` (centres unmarked) [Example 31.173], the midpoint of the response, the EC50, lay at 440 nM.

Turning to `CN(Cc1cccc2ccccc12)C(=O)C1CN(c2c3c(nc4ccnn24)CCNCC3)C1` [Example 31.76], the EC50 came out at 81 nM.

`O=C(C1CN(c2c3c(nc4ccnn24)CCNCC3)C1)N1CCN(CC2CC2)CC1` [Example 37.17] showed a 50% effective concentration (EC50) of 3 nM.

`O=C(NC1CCCCC1C(F)(F)F)C1CN(c2c3c(nc4ccnn24)CCNCC3)C1` (centres unmarked) [Example 37.58] had an EC50 of 224 nM.

With `CC1CCCCN1C(=O)C1CN(c2c3c(nc4ccnn24)CCNCC3)C1` (centres unmarked) [Example 31.62], a half-maximal response (EC50) required 925 nM.

Turning to `O=C(C1CN(c2c3c(nc4ccnn24)CCNCC3)C1)N1CC=CCC1` [Example 31.178], a half-maximal effect (EC50) was put at 109 nM. Against the preceding compound, the EC50 is about 8.5-fold lower.

In the case of `CN(C(=O)C1CN(c2c3c(nc4ccnn24)CCNCC3)C1)C1CC1` [Example 31.10], the response was half-maximal at 1670 nM (EC50).

Compound `c1ccc(C2CCN(c3c4c(nc5ccnn35)CCNCC4)C2)cc1` (centres unmarked) [Example 1.26] yielded an EC50 of 160 nM.

With `O=C(C1CN(c2c3c(nc4c(Br)cnn24)CCNCC3)C1)N1CCC2(CCC2)C1` [Example 31.133], the EC50 was 60 nM.

With `Fc1cc(Cl)ccc1OC1CN(c2c3c(nc4ccnn24)CCNCC3)C1` [Example 35.22], the EC50 was determined as 82 nM.

In turn, `c1nn2c(N3CCC3)c3c(nc2c1CCC1CC1)CCNCC3` [Example 6.1] came in with a concentration for a half-maximal effect (EC50) of 365 nM.

In turn, `CC(c1ccccc1)n1c(C2CN(c3c4c(nc5ccnn35)CCNCC4)C2)nc2cc(Cl)ccc21` (centres unmarked) [Example 34.37] came in with an EC50 of 2380 nM.

For the compound `O=C(NCC1CCCC1)C1CN(c2c3c(nc4ccnn24)CCNCC3)C1` [Example 37.103], the half-maximal effective concentration (EC50) amounted to 68 nM. This EC50 lies about 35-fold lower than the previous one.

`CC1(C)CCC(NC(=O)C2CN(c3c4c(nc5ccnn35)CCNCC4)C2)CC1` [Example 37.53]: the EC50 is 20 nM.

Take `CN(C)C1CCN(C(=O)C2CN(c3c4c(nc5ccnn35)CCNCC4)C2)CC1` [Example 37.2]: the half-maximal effective concentration (EC50) is 1 nM.

In turn, `Fc1ccc(OCC2CN(c3c4c(nc5ccnn35)CCNCC4)C2)cc1Cl` [Example 15.11] registered an EC50 of 20 nM.

The compound `CC(C)(C)N1CCC2(CCN(c3c4c(nc5ccnn35)CCNCC4)CC2)C1=O` [Example 1.65] came in with a concentration giving a half-maximal response (EC50) of 4900 nM. Against the preceding compound, the EC50 is about 240-fold higher.

For `COc1ccccc1N(C)C(=O)C1CN(c2c3c(nc4ccnn24)CCNCC3)C1` [Example 31.38], the midpoint of the response, the EC50, lay at 790 nM.

The compound `O=C(C1CCCN(c2c3c(nc4ccnn24)CCNCC3)C1)N1CCCCC1` (centres unmarked) [Example 1.61] showed a concentration giving a half-maximal response (EC50) of 4710 nM.

`CC(C)N1CCCN(C(=O)C2CN(c3c4c(nc5ccnn35)CCN(C)CC4)C2)CC1` [Example 36.49]: the concentration giving a half-maximal response (EC50) stood at 78 nM.

`Cc1cnn2c(N3CC(C(=O)N(C)Cc4ccc(C#N)cc4)C3)c3c(nc12)CCNCC3` [Example 31.250] returned an EC50 of 9 nM.

On to `CNC1CCN(C(=O)C2CN(c3c4c(nc5ccnn35)CCNCC4)C2)C1` (centres unmarked) [Example 37.26], for which the EC50 came out at 2 nM.

As for `C[C@@H]1C[C@H](C)CN(C(=O)C2CN(c3c4c(nc5ccnn35)CCN(C)CC4)C2)C1` [Example 36.15], the 50% effective concentration (EC50) came out at 154 nM.

As for `c1cc2c3c(cccc3c1)CN(c1c3c(nc4ccnn14)CCNCC3)C2` [Example 1.50], the EC50 was 924 nM.

In turn, `O=C(C1CN(c2c3c(nc4ccnn24)CCNCC3)C1)N(Cc1ccccc1)Cc1ccc(F)cc1` [Example 31.197] returned an EC50 of 122 nM. Compared with the last compound, the EC50 is about 7.6-fold lower.

In turn, `CO[C@H]1CCN(C(=O)C2CN(c3c4c(nc5ccnn35)CCN(C)CC4)C2)C1` [Example 36.41] returned a concentration for a half-maximal effect (EC50) of 337 nM.

Regarding `CC(=O)N1CCCN(C(=O)C2CN(c3c4c(nc5ccnn35)CCNCC4)C2)CC1` [Example 37.102], the concentration giving a half-maximal response (EC50) turned out to be 67 nM. This EC50 is about 5-fold lower than that of the compound before.

On to `O=C(C1CN(c2c3c(nc4ccnn24)CCNCC3)C1)N1CC=CC1` [Example 31.183], for which the EC50 turned out to be 308 nM. Against the preceding compound, the EC50 is about 4.6-fold higher.

Turning to `CC1(C)CC(NC(=O)C2CN(c3c4c(nc5ccnn35)CCNCC4)C2)CC(C)(C)N1` [Example 37.7], it took 15 nM to reach a half-maximal effect (EC50).

In the case of `O=C(NCCc1ccccc1)C1CN(c2c3c(nc4ccnn24)CCNCC3)C1` [Example 31.21], the EC50 is 727 nM.

In the case of `CN1CCc2nc3ccnn3c(N3CC(C(=O)NCCCN4CC[C@@H](F)C4)C3)c2CC1` [Example 36.32], the midpoint of the response, the EC50, lay at 288 nM. Compared with the last compound, the EC50 is about 2.5-fold lower.

The compound `CCN1CCN(C(=O)C2CN(c3c4c(nc5ccnn35)CCN(C)CC4)C2)CC1` [Example 36.1, (4-Ethyl-piperazin-1-yl)-[1-(7-methyl-6,7,8,9-tetrahydro-5H-1,4,7,10a-tetraaza-cyclohepta[f]inden-10-yl)-azetidin-3-yl]-methanone] returned an EC50 of 69 nM.

`O=C(NC1CC2CCC1C2)C1CN(c2c3c(nc4ccnn24)CCNCC3)C1` (centres unmarked) [Example 37.84] had a concentration for a half-maximal effect (EC50) of 62 nM.

`O=C1CN(C(=O)C2CN(c3c4c(nc5ccnn35)CCNCC4)C2)CCN1` [Example 37.12] returned an EC50 of 27 nM.

Compound `O=C(NCCF)C1CN(c2c3c(nc4ccnn24)CCNCC3)C1` [Example 37.107] returned a half-maximal effective concentration (EC50) of 91 nM.

In the case of `O=C(C1CN(c2c3c(nc4ccnn24)CCNCC3)C1)N1CC[C@H](Oc2cccc(Cl)c2)C1` [Example 31.213], the midpoint of the response, the EC50, lay at 103 nM.

The compound `COc1ccccc1OCC1CN(c2c3c(nc4ccnn24)CCNCC3)C1` [Example 15.21] came in with a 50% effective concentration (EC50) of 29 nM.

The compound `CN1C2CCC1CC(NC(=O)C1CN(c3c4c(nc5ccnn35)CCNCC4)C1)C2` (centres unmarked) [Example 37.93] displayed a half-maximal effective concentration (EC50) of 12 nM.

With `O=C(NC1CCc2ccccc21)C1CN(c2c3c(nc4ccnn24)CCNCC3)C1` (centres unmarked) [Example 31.32], the concentration giving a half-maximal response (EC50) came to 49 nM.

Consider `CN(Cc1ccc(Cl)cc1Cl)C(=O)C1CN(c2c3c(nc4ccnn24)CCNCC3)C1` [Example 31.164], for which the response was half-maximal at 111 nM (EC50).

Compound `O=C(C1CN(c2c3c(nc4ccnn24)CCNCC3)C1)N1CCCC1c1ccccc1` (centres unmarked) [Example 31.45] yielded an EC50 of 575 nM.

As for `CC(C)N(C)C(=O)C1CN(c2c3c(nc4ccnn24)CCNCC3)C1` [Example 31.6], the EC50 is 5940 nM.

For `COc1ccc(OC2CN(c3c4c(nc5ccnn35)CCNCC4)C2)c(Br)c1` [Example 35.30], the EC50 amounted to 40 nM.

Take `Brc1ccc(OC2CN(c3c4c(nc5ccnn35)CCNCC4)C2)cc1` [Example 35.2]: a half-maximal effect (EC50) was put at 184 nM.

In turn, `O=C(C1CN(c2c3c(nc4ccnn24)CCNCC3)C1)N1CCC(CCc2ccc(F)cc2)CC1` [Example 31.105] registered an EC50 of 111 nM.

As to `O=C(C1CN(c2c3c(nc4ccnn24)CCNCC3)C1)N1CCC(c2cc(Cl)cc(Cl)c2)CC1` [Example 31.214], the midpoint of the response, the EC50, lay at 471 nM.

Compound `Cc1ccc(CN(C)C(=O)C2CN(c3c4c(nc5ccnn35)CCNCC4)C2)cc1` [Example 31.50] showed an EC50 of 51 nM.

`COc1ccc(C2(CNC(=O)C3CN(c4c5c(nc6ccnn46)CCNCC5)C3)CCCCC2)cc1` [Example 31.185] displayed an EC50 of 1470 nM. This EC50 lies about 29-fold higher than the previous one.

As for `OC1CCCN(c2c3c(nc4ccnn24)CCNCC3)C1` (centres unmarked) [Example 1.38], the EC50 turned out to be 1810 nM. This EC50 and that of the compound before are within 1.5-fold of each other.

In turn, `Cc1cnn2c(N3CC(C(=O)N4CCC5(CCCC5)C4)C3)c3c(nc12)CCNCC3` [Example 31.248] displayed a concentration for a half-maximal effect (EC50) of 25 nM.

Compound `CN1CCCN(C(=O)C2CN(c3c4c(nc5ccnn35)CCNCC4)C2)CC1` [Example 37.10] came in with an EC50 of 2 nM. Against the preceding compound, the EC50 is about 12-fold lower.

Consider `CCC(C)(C)NC(=O)C1CN(c2c3c(nc4ccnn24)CCNCC3)C1` [Example 37.54], for which the EC50 came to 118 nM.

Consider `CC1(C(=O)N2CCC3(CCOC3)CC2)CN(c2c3c(nc4ccnn24)CCNCC3)C1` [Example 32.4], for which the EC50 is 4270 nM.

`Cc1ccc2c(c1)CCN2C(=O)C1CN(c2c3c(nc4ccnn24)CCNCC3)C1` [Example 31.156] displayed an EC50 of 135 nM.

The compound `c1cnc2ccc(OC3CN(c4c5c(nc6ccnn46)CCNCC5)C3)cc2c1` [Example 35.43] had a concentration giving a half-maximal response (EC50) of 207 nM.

Turning to `CCN(C)C(=O)C1CN(c2c3c(nc4ccnn24)CCNCC3)C1` [Example 31.4], the 50% effective concentration (EC50) was determined as 685 nM.
